Measurements as given in ChEMBL document CHEMBL5653631, “A Potent and Selective ULK1 Inhibitor Suppresses Autophagy and Sensitizes Cancer Cells to Nutrient Stress” (iScience, 2018).

Tests used:
[1] = target: Maternal embryonic leucine zipper kinase (Homo sapiens) (UniProt Q14680); assay: Inhibition of human recombinant MELK at 40 nM related to control ULK1
[2] = target: T1, Testis-specific serine/threonine-protein kinase 4 (Homo sapiens) (UniProt Q6SA08); assay: Inhibition of human recombinant TSSK4 at 40 nM related to control ULK1
T1 sequence (whole entry): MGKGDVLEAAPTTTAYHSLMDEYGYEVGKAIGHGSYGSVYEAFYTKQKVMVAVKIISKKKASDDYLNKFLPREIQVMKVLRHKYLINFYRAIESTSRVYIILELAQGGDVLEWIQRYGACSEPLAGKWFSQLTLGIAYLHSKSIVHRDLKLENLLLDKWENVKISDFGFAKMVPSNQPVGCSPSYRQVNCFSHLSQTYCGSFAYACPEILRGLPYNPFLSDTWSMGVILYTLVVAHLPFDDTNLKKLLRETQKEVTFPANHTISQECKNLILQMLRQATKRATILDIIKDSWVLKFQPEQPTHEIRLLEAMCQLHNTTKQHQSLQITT

Homo sapiens = organism: Homo sapiens; assay: Inhibition of human recombinant KHS1 at 40 nM related to control ULK1
[3] = target: T2, Serine/threonine-protein kinase NLK (Homo sapiens) (UniProt Q9UBE8); assay: Inhibition of human recombinant NLK at 40 nM in presence of ATP by radiometric assay relative to control
T2 sequence (whole entry): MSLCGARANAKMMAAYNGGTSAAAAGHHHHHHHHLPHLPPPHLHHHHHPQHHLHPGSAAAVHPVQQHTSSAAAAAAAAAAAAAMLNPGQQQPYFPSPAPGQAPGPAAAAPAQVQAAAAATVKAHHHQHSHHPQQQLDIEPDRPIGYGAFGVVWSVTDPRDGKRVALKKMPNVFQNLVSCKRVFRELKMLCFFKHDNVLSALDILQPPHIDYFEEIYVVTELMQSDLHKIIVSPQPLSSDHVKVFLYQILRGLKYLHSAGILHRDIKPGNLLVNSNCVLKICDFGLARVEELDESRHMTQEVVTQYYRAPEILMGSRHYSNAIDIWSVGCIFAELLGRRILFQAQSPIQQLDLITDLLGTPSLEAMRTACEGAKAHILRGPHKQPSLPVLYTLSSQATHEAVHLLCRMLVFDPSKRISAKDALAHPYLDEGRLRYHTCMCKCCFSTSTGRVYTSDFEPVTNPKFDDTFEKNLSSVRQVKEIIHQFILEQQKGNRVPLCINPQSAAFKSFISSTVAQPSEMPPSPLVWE

[4] = target: T3, Serine/threonine-protein kinase 17A (Homo sapiens) (UniProt Q9UEE5); assay: Inhibition of human recombinant DRAK1 at 15 nM related to control ULK1
T3 sequence (whole entry): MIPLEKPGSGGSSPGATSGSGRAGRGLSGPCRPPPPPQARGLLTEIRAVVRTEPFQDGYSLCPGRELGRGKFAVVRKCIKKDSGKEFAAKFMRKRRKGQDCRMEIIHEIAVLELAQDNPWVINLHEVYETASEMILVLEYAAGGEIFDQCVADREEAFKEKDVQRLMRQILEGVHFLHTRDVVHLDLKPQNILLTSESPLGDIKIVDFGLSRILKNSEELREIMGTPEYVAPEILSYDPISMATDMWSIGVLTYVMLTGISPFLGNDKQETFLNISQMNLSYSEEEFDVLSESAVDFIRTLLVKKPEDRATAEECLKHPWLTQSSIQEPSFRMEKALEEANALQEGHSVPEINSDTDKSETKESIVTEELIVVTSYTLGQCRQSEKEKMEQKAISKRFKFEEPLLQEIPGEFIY

[5] = target: T4, SNF-related serine/threonine-protein kinase (Homo sapiens) (UniProt Q9NRH2); assay: Inhibition of human recombinant SNRK at 15 nM in presence of ATP by radiometric assay relative to control
T4 sequence (whole entry): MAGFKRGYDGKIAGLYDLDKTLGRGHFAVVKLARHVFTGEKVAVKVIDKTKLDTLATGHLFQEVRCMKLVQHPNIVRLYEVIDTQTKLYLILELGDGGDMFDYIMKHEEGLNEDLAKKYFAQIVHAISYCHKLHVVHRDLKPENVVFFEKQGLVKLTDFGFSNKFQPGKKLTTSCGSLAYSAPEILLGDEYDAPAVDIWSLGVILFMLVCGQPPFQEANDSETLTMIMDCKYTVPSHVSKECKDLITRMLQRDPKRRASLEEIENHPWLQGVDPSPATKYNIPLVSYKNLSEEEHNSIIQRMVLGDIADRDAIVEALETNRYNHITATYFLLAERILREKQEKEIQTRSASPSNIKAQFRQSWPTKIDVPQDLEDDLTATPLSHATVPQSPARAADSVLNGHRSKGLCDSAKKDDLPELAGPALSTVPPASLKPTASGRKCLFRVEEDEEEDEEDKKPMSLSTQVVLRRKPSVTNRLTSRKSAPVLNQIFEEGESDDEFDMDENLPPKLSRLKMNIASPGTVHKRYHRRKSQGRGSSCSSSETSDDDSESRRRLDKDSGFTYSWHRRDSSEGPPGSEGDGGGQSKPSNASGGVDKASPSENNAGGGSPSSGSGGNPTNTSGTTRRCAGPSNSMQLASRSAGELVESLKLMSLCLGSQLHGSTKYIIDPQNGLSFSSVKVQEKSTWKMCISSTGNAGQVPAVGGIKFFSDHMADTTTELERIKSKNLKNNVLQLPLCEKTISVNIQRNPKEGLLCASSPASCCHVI

[6] = target: Serine/threonine-protein kinase PRP4 homolog (Homo sapiens) (UniProt Q13523); assay: Inhibition of human recombinant PRP4 at 15 nM related to control ULK1
[7] = target: Cell division cycle 7-related protein kinase (Homo sapiens) (UniProt O00311); assay: Inhibition of human recombinant CDC7 at 15 nM in presence of ATP by radiometric assay relative to control
[8] = target: Calcium/calmodulin-dependent protein kinase type II subunit alpha (Homo sapiens) (UniProt Q9UQM7); assay: Inhibition of human recombinant CaMK2a at 500 nM in presence of ATP by radiometric assay relative to control
[9] = target: Casein kinase I isoform gamma-3 (Homo sapiens) (UniProt Q9Y6M4); assay: Inhibition of human recombinant CK1g3 at 500 nM in presence of ATP by radiometric assay relative to control
[10] = target: Tyrosine-protein kinase SYK (Homo sapiens) (UniProt P43405); assay: Inhibition of human recombinant SYK at 500 nM related to control ULK1

Sequence of Maternal embryonic leucine zipper kinase (Homo sapiens) (Q14680 whole entry, looked up): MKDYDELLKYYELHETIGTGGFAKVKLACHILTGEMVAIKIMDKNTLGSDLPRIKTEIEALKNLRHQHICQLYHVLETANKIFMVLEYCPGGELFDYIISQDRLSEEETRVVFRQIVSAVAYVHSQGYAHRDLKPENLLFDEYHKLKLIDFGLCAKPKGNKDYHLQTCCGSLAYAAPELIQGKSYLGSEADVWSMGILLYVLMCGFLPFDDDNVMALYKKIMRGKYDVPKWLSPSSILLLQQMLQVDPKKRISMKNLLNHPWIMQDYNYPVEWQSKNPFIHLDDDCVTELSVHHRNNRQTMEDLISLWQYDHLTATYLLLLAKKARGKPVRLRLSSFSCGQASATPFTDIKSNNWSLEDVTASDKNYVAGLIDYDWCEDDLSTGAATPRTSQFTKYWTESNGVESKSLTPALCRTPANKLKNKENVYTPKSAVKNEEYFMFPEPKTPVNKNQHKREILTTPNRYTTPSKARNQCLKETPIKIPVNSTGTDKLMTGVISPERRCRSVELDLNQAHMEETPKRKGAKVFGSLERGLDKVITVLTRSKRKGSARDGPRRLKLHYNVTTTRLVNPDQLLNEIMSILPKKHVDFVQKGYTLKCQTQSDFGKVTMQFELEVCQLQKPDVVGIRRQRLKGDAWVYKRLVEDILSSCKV
Sequence of Casein kinase I isoform gamma-3 (Homo sapiens) (Q9Y6M4 whole entry, looked up, canonical isoform): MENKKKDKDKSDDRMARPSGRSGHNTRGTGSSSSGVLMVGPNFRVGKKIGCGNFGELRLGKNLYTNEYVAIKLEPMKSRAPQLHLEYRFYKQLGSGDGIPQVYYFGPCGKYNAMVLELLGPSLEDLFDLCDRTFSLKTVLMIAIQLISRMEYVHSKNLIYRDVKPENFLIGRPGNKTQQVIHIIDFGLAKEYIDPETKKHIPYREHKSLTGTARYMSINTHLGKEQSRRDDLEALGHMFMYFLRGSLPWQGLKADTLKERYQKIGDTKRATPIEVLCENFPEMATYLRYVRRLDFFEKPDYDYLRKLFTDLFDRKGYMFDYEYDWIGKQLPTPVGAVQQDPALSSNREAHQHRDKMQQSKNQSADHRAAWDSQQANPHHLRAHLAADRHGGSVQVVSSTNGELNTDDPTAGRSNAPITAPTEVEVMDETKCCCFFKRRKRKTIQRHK
Sequence of Cell division cycle 7-related protein kinase (Homo sapiens) (O00311 whole entry, looked up): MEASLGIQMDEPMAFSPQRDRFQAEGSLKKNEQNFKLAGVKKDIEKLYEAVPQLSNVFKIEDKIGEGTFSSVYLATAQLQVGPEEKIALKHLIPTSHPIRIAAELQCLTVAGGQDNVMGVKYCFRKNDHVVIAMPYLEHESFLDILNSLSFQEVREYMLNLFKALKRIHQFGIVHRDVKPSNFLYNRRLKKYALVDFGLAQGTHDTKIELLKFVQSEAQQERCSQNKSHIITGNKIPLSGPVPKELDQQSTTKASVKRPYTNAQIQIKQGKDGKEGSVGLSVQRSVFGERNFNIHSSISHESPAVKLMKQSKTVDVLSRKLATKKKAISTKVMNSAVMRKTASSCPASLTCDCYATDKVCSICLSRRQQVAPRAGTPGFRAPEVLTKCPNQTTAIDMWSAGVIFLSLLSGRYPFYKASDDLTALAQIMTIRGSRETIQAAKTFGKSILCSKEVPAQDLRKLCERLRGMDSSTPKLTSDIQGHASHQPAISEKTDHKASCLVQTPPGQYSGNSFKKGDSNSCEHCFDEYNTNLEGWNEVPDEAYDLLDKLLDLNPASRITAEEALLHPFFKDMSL
Sequence of Serine/threonine-protein kinase PRP4 homolog (Homo sapiens) (Q13523 whole entry): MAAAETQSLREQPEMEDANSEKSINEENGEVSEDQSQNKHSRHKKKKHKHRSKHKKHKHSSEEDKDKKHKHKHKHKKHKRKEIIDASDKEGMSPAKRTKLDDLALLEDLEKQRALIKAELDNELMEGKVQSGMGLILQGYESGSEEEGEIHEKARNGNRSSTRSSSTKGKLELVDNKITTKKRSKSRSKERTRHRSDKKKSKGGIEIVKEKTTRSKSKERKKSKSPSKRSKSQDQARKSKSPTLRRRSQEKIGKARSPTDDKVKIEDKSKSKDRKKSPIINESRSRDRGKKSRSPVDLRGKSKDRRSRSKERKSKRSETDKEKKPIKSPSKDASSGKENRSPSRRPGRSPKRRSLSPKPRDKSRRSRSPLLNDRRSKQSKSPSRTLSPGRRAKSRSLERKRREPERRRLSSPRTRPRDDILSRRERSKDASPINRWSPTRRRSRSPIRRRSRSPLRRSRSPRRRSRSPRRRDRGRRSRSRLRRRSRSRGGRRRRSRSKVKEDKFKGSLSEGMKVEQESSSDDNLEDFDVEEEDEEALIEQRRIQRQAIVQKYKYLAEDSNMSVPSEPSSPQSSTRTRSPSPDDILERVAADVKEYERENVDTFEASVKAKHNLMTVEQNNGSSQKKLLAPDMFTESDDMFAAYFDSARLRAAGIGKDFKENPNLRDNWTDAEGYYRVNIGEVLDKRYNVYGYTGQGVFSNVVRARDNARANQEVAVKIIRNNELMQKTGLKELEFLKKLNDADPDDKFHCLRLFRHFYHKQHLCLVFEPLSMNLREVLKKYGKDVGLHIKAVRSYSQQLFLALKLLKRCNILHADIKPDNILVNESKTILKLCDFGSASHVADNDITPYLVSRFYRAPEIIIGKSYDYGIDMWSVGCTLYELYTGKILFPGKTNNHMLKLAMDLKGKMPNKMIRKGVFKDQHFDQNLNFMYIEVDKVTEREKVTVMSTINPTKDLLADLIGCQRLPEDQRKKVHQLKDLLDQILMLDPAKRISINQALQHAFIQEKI
Sequence of Calcium/calmodulin-dependent protein kinase type II subunit alpha (Homo sapiens) (Q9UQM7 whole entry, canonical isoform): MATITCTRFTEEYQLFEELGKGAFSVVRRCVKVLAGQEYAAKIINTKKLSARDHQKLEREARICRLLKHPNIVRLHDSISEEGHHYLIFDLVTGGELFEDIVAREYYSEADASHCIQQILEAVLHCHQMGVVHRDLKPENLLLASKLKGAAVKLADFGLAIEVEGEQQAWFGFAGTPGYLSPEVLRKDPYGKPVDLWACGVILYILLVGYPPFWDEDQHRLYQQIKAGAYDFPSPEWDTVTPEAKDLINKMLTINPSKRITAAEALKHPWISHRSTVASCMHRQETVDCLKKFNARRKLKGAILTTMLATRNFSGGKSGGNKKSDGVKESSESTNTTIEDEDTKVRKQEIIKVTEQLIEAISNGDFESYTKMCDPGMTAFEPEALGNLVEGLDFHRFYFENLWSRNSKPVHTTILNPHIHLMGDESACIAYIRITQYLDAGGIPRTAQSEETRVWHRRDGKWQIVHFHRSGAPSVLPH

A fold change (FC) [1] of 0.27, a fold change (FC) [2] of 0 and a fold change (FC) (Homo sapiens) of 0 were found for `O=C(N[C@@H](C1CC1)C(F)(F)F)c1cc(-c2cnn3cc(-c4ccc(F)cc4)cnc23)cs1` in this work. It also gave an inhibition [3] of 47%.

A fold change (FC) [4] of 0.81, an inhibition [5] of 8% and a fold change (FC) [6] of 0.07 were found for `CC(C)[C@H](NC(=O)c1cc(-c2cnn3cc(-c4ccc(OCCN5CCCCC5)cc4)cnc23)cs1)C(F)(F)F` in this work. It also gave an inhibition [7] of 8%.

An inhibition [8] of 0%, an inhibition [9] of 0% and a fold change (FC) [10] of 0 were found for `CNC(=O)c1ccccc1Oc1nc(Nc2cc(OC)c(OC)c(OC)c2)ncc1Br` in this work.
